These results are taken from patent US20190358343A1, “ADOPTIVE TRANSFER OF CAR T CELLS WITH SURFACE-CONJUGATED DRUG-LOADED NANOPARTICLES AND USES THEREOF” (University of Southern California, priority 2017, published 2019).

The conditions of data set [1]: cited from earlier work.
A further data set deals with adenosine receptor A2A (Homo sapiens, UniProt P29274). The conditions noted are these: cited from earlier work.
The next data set deals with PBMCs. The data set is described as follows: In vitro XTT assay. It counts as cell-based, human. The source says:
(§1) Based on the procedure of nanoparticle-cell surface conjugation developed in Stephen et al (2010), we pioneered the utilization of CAR engineered human PBMCs as therapeutic cells that have nanoparticles conjugated to the surface. The nanoparticles encapsulate small molecule inhibitors of the A2a receptor, e.g., SCH 58261, which is highly hydrophobic and is generally unsuitable for systemic infusion. […] Therefore, SCH 58261 is a suitable drug to illustrate the advantage of this T cell-nanoparticle cargo system for the purposes of enhancing CAR T cell therapy by co-delivering therapeutic cells and adjuvant in the same unit. Compare with other compositions or systems to block the A2aR pathway, such as genetically engineering CAR-T cells with the CRISPR/Cas system or receptor siRNA knock down, a major advantage of presently disclosed composition and method is the ability of the drug to affect endogenous T cells and circulating CAR-T cells, as well as the carrier CAR-T cells themselves.

For data set [2], the system named is tumor cells (SKOV3-CD19+). The data set is described as follows: In vitro XTT assay. It counts as cell-based, human.
Text: as §1

Like-named read-outs stand apart in the source and are kept apart here.

Sequence of adenosine receptor A2A (P29274 whole entry, species assumed): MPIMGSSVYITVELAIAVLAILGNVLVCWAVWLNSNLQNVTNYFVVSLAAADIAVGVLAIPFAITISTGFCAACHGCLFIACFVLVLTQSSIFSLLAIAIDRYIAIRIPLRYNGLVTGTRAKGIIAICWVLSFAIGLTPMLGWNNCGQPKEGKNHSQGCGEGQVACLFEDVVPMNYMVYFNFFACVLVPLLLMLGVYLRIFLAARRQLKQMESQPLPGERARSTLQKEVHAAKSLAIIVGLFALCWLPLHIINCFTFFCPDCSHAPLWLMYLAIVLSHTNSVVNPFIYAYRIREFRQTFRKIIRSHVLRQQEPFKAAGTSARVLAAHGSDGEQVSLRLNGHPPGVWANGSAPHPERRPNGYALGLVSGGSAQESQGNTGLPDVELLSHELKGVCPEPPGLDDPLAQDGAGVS

As to `Nc1nc2c(cnn2CCc2ccccc2)c2nc(-c3ccco3)nn12` [SCH-58261], the solubility entry in data set [1] was “poor solubility”. Besides, the “selectivity for A2A over other adenosine receptors” value at adenosine receptor A2A was “more than 50 times”. Besides, the figures for the cytotoxic effects result (in the data set with PBMCs; in data set [2]; in data set [2] (listed as SCH)) were “does not have cytotoxic effects”, “does not have cytotoxic effects” and “not directly affected”, respectively.
